How the values were obtained:
rats fed with Nath diet [1] = experiment: Nath diet experiments in the same manner, comparison with other drugs at present in use (25th, 35th, 45th day); format: in vivo; conditions: for increase in cholesteraemia: aminoethanethiosulphonic acid 100 mg/kg, phosphorylcholine dose not stated; for increase in triglyceridemia: Nath diet alone 100%
Method: Experiments were carried out in the same manner as explained above with other drugs at present in use and, more particularly, phosphorylcholine (2 doses/25 and 50 mg/kg), sillimarine (Legalon, 70 mg/kg), S-adenosyl-1-methionine (Samyr) 25 mg/kg.
In rats fed solely with the Nath diet, the increase is, however, 100%. Among the control drugs, only phosphorylcholine (50 mg/kg) achieves a slight reduction (-20%) relative to the increase observed at the end of the period with the atherogenic diet. • - as regards the cholesteraemia the protective action shown by the drug of the invention was significant. Indeed, in rats fed with the drug phosphorylcholine,a 300% increase was found after 25 days and 320% and 410% increases respectively were found on the 35th and 45th days of feeding while in rats fed with aminoethanethiosulphonic acid (100mg/kq) the increase in cholesteraemia was only 35% on the 25th and on the 35th days. On the 45th day the increase was 50%.

[2] = tested on: liver damage in rats induced by allyl alcohol; experiment: Activity against liver damage in rats induced by allyl alcohol; format: in vivo
Method: Experiments were carried out on the activity of the drug of this invention on liver damage in rats induced by allyl alcohol. This damage was evaluated by means of the weight of the liver, the quantity of lipids in the tissue itself and tHe excretion of BSP in the bile, as well as the changes in the GOT, GPT and the alkaline phosphatase levels in the blood.
The respective administrations to the rats were carried out intraperitoneally for 4 days. From the data in Table III it is seen that the weight of the rats'livers increased from […] in rats poisoned with allyl alcohol while the increase was only up to 5.30 mg in rats fed intraperitoneally with allyl alcohol and aminoethanethiosulphonic acid (drug of the invention). When allyl alcohol and the drug known by the name Thiola (100mg/^kg/day) was administered to the rats the liver weight increased to about 5.85 mg.

rats fed with Nath diet [3] = experiment: Antidyslipaemic effect in rats fed with Nath diet for 45 days (evaluations on 28th and 45th day); format: in vivo, female Wistar rats; conditions: 28th day of treatment, tiadenol 100 mg/kg/day (Group C)
rats fed with Nath diet [4] = experiment: as above; format: in vivo, female Wistar rats; conditions: for blood triglyceride level: 28th day of treatment, aminoethanethiosulphonic acid dose printed as 10 mg/kg/day, tiadenol 100 mg/kg/day (Group C); for increase in pyruvic transaminase (GPT) level compared with the controls: Nath diet alone 60%; for increase in glutamic oxaloacetic transaminase (GOT) level compared with the controls: Nath diet alone 109%
Method: The aminoethanethiosulphonic acid, which constitutes the drug of this invention was tested experimentally on female Wistar rats to establish its antidyslipaemic effect in comparison with drugs already in use therapeutically. For this experiment, the rats were divided into five groups of five rats which were fed in accordance with the following scheme: • GROUP "A": rats fed with a normal diet of nutritive pellets having the following composition: Composition of the nutritive pellets: [formula] with the addition of vitamins (A-D3-E-C), NaCl, CaCO3 and spring water at will. • GROUP "B": rats fed with Nath diet (Nath et al. 1959 - Journal of Nutrition, 67-289). • GROUP "C": rats fed with a Nath diet incorporating the drug tiadenol (1.25 q/kg)such that the rats could take up the drug in quantities of 100 mg/kg/day. • GROUP D: rats fed with a Nath diet incorporating the drug of the invention (1.25 g/kg of aminoethanethiosulphonic acid) such that the rats could take up the drug in quantities of 100 mg/kg/day. • GROUP"E":rats fed with a Nath diet incorporating the drug of the invention (aminoethanethiosulphonic acid) in quantities of 2.5 g/kg, so that the rats could take up the drug in quantities of 200 mg/kg/day.
The experiments were carried out over a period of 45 days. On the 28th day of treatment, the cholesteraemia and the blood triglyceride level of the rats were measured.
On the 45th day from the start of the treatment, however a whole series of systematic weight and hematochemical evaluations was carried out in accordance with the following scheme: • - liver weight/body weight percentage ratio • - ratio of the weight of the liver when removed/dry weight of the liver • - cholesteraemia according to the Watson method (1) • - blood triglyceride level according to the Bermryer method (2) • - blood alkaline phosphatase level (3,4) • - glutamic oxaloacetic transaminase level according to the Karmen method (5,6) • - glutamic pyruvic transaminase level according to the Wroblewski and La-Due method (7) • - total lipid content of the liver by extraction with ether, separation by decantation, evaporation of the ether part in an oven and weighing of the residue. • 1. - WATSON D. (1960) Clin. Chim. Acta, 5 : 637 • 2. - BERGMRYER H.U. (1975) Z. Klin. Chem. and Klin. Biochem.13 : 507 • 3; - Anon. (1970) Z.Klin. Chem. and Klin.Biochem 13 : 507. • 4. - Anon.(1972) Z.Klin. Chem. and Klin. Biochem 13 : 507. • 5. - KARMEN A. and coll. (1955) J. Clin. Invest. 34 : 126. • 6. - KARMEN A. (1955) J. Clin Invest. 34 : 131 • 7. - WROBLEWSKI F. and coll. (1956) Proc. Soc. exp. Biol. Med. 91 : 569.
Macroscopic and microscopic, anatomical-pathological examinations of the liver and of the thoracic aorta were carried out on all the animals, the microscopic examinations being carried out by means of preservation in formalin,enclosure and colouration with hematoxylin- eosin and selective dyes for the lipids according to the current methods.

[5] = tested on: WISTAR RATS KEPT ON A MORRIS DIET; experiment: Protection in Wistar rats kept on a Morris diet for 45 days; format: in vivo; conditions: Morris diet 45 days; (XX) 100 mg/kg, phosphorylcholine 50 mg/kg
Method: (§1) Table IV below gives data relative to the protection offered by the administration of aminoethanethiosulphonic acid (100 mg/kg/day) and a control drug (phosphoryl- , choline, 50 mg/kg/day) to groups of Wistar rats subjected to two different atherogenic diets, specifically the Morris diet and the Handler diet, for 45 days. The data, in general, substantially repeated those observed in experiments carried out on aminals subjected to the Nath diet.

[6] = tested on: WISTAR RATS ON A HANDLER DIET; experiment: Protection in Wistar rats on a Handler diet for 45 days; format: in vivo; conditions: Handler diet 45 days; (XX) 100 mg/kg, phosphorylcholine 50 mg/kg
Method: as §1

Solubility in water = format: physicochemical
[7] = Stability in the solid state; format: physicochemical; conditions: even at 50°C for very long periods of time
[8] = Toxicology, administration kept up for 180 days; format: in vivo; conditions: daily dose of 200 mg/kg of body weight
[9] = 100 mg/kg/day i.p. for 4 days, allyl alcohol 2 ml/kg p.o. 30 minutes after last administration
[10] = 100 mg/kg/day i.p. for 4 days, allyl alcohol 2 ml/kg p.o. 30 minutes after last administration, listed as (XX)

| Structure (SMILES) | LIVER Weight [2, 9] | SERUM BSP [2, 9] | SERUM GOT [2, 9] | SERUM GPT [2, 9] | blood cholesterol level (rats fed with Nath diet [3]) | blood triglyceride level (rats fed with Nath diet [4]) | increase in pyruvic transaminase (GPT) level compared with the controls (rats fed with Nath diet [4]; 45th day, 100 mg/kg/day) | increase in glutamic oxaloacetic transaminase (GOT) level compared with the controls (rats fed with Nath diet [4]; 45th day, 100 mg/kg/day) | BETALIPOPROTEINS, protection [5] | CHOLESTERAEMIA, protection [5] | HEPATIC LIPIDS, protection [5] | TOTAL BLOOD LIPIDS, protection [5] | CHOLESTERAEMIA, protection [6] | HEPATIC LIPIDS, protection [6] | TOTAL BLOOD LIPIDS, protection [6] | TRIGLYCERIDEMIA, protection [6] | increase in cholesteraemia (rats fed with Nath diet [1]; 25th day) | increase in cholesteraemia (rats fed with Nath diet [1]; 35th day) | increase in cholesteraemia (rats fed with Nath diet [1]; 45th day) | also measured |
| --- | --- | --- | --- | --- | --- | --- | --- | --- | --- | --- | --- | --- | --- | --- | --- | --- | --- | --- | --- | --- |
| C[S+](CC[C@H](N)C(=O)O)C[C@H]1O[C@@H](n2cnc3c(N)ncnc32)[C@H](O)[C@@H]1O (some centres unmarked) [Samyr, S-adenosyl-1-methionine, reference compound] |  |  |  |  |  |  |  |  |  |  |  |  |  |  |  |  |  |  |  | changes in the transaminase levels (GOT and GPT) (rats fed with Nath diet [1]; 35th day of administration): a certain favourable action; protective action as regards the cholesteraemia (rats fed with Nath diet [1]; Legalon 70 mg/kg, Samyr 25 mg/kg, noticeably less than aminoethanethiosulphonic acid): a certain protective action; protection from the point of view of lipid infiltration (rats fed with Nath diet [1]; control drugs compared with aminoethanethiosulphonic acid): protection was found but was only half that given by the aminoethanethiosulphonic acid |
| CC(S)C(=O)NCC(=O)O (centres unmarked) [Thiola] | about 5.85 mg | 21.78 ± 2.99 µg/mL | 388.0 ± 25.8 mU/ml | 99.4 ± 12.2 mU/ml |  |  |  |  |  |  |  |  |  |  |  |  |  |  |  | LIVER Lipids Tot. [2, 9]: 5.23 ± 0.30 mg%; SERUM ALKALINE PHOSPHATASE [2, 9]: 3.13 ± 0.23 U/ml; protection against the increase in the total lipid content of the liver ([2]; after allyl alcohol, 100 mg/kg/day i.p.): did not give any protection |
| OCCSCCCCCCCCCCSCCO [tiadenol, reference compound] |  |  |  |  | 155 mg% | 44 mg% | 100% | 32% |  |  |  |  |  |  |  |  |  |  |  |  |
| C[N+](C)(C)CCOP(=O)(O)O [phosphorylcholine, reference compound] |  |  |  |  |  |  |  |  | 8% | 12% | 12% | 5% | 15% | 23% | 10% | 7% | 300% | 320% | 410% | reduction in triglyceridemia relative to the increase observed at the end of the period with the atherogenic diet (rats fed with Nath diet [1]; 50 mg/kg): -20% |
| NCCS(=O)(O)=S [aminoethanethiosulphonic acid] | 5.30 | 12.31 ± 0.91 µg/mL | 172.0 ± 10.2 mU/ml | 25.9 ± 2.5 mU/ml | 129 mg% | 31 mg% | 90% | 23% | 45% | 60% | 50% | 40% | 35% | 50% | 33% | 30% | 35% | 35% | 50% | increase in the quantity of lipids in the tissue (hepatic parenchyma) (rats fed with Nath diet [1]; 25th day, 100 mg/kg, Nath diet alone + 155): 50%; increase in the quantity of lipids in the tissue (hepatic parenchyma) (rats fed with Nath diet [1]; 25th day, 200 mg/kg, Nath diet alone + 155): 95%; increase in triglyceridemia (rats fed with Nath diet [1]; 35th day, 100 mg/kg/day): 15%; increase in triglyceridemia (rats fed with Nath diet [1]; 35th day, 200 mg/kg/day): 40%; increase in the quantity of lipids in the tissue (hepatic parenchyma) (rats fed with Nath diet [1]; 45th day, 100 mg/kg, Nath diet alone + 225): 98%; increase in the quantity of lipids in the tissue (hepatic parenchyma) (rats fed with Nath diet [1]; 45th day, 200 mg/kg, Nath diet alone + 225): 110%; solubility in water (Solubility in water): soluble in water; LIVER Lipids Tot. [2, 10]: 5.08 ± 0.39 mg%; LIVER Weight [2, 10]: 5.30 ± 0.05; LIVER Lipids Tot. ([2]; 100 mg/kg/day i.p. for 4 days, allyl alcohol 2 ml/kg p.o. 30 minutes after last administration, listed as drug of the invention): 5.08 mg%; increase in the hepatic lipid infiltration compared with the control animals (rats fed with Nath diet [4]; 45th day, 100 mg/kg/day, Nath diet alone 235%): 117%; stability in the solid state [7]: considerable stability in the solid state; mortality [8]: did not result in any increase in mortality; weight curve [8]: nor any variation in the weight curve |

Source: patent publication EP0108854A1, “Drug for stimulating hepatic cell homeostasis and for restoring the functional capacity of the hepatocytes” (ARCONTHORN LIMITED, priority 1982, dated 1984)
